In ChEMBL document CHEMBL5223122, “Discovery and preclinical evaluations of GST-HG131, a novel HBV antigen inhibitor for the treatment of chronic hepatitis B infection” (Bioorg Med Chem Lett, 2022):
Values belong to the compound of their own block, whether it stands above or below them. Calls of active or inactive are those of the source. The calls are words filed in the database; no cut-off is given here.

Tests used:
[1] = Clearance in Sprague-Dawley rat at 1 mg/kg, iv; format: ADME, organism-based; details: in vivo
[2] = Clearance in C57BL/6 mouse at 1 mg/kg, iv; format: ADME, organism-based; details: in vivo
[3] = AUC (0-last) in C57BL/6 mouse at 2 mg/kg, po; format: ADME, organism-based; design: dose 2 mg/kg, route po; details: in vivo
[4] = Half life in C57BL/6 mouse at 1 mg/kg, iv; format: ADME, organism-based; details: in vivo
[5] = AUC (0-last) in Sprague-Dawley rat at 2 mg/kg, po; format: ADME, organism-based; design: dose 2 mg/kg, route po; details: in vivo
[6] = Cmax in Sprague-Dawley rat at 2 mg/kg, po; format: ADME, organism-based; design: dose 2 mg/kg, route po; details: in vivo
[7] = system: Hepatitis B virus; assay: Antiviral activity against HBV infected in human HepG2.2.15 assessed as HBV DNA reduction by qPCR method; format: functional, organism-based
[8] = Half life in Sprague-Dawley rat at 1 mg/kg, iv; format: ADME, organism-based; details: in vivo
[9] = Volume of distribution in steady state in Sprague-Dawley rat at 1 mg/kg, iv; format: ADME, organism-based; details: in vivo, read-out: Vdss
[10] = Cmax in C57BL/6 mouse at 2 mg/kg, po; format: ADME, organism-based; design: dose 2 mg/kg, route po; details: in vivo
[11] = Volume of distribution in steady state in C57BL/6 mouse at 1 mg/kg, iv; format: ADME, organism-based; details: in vivo, read-out: Vdss
[12] = Oral bioavailability in C57BL/6 mouse at 2 mg/kg; format: ADME, organism-based; details: in vivo
[13] = Oral bioavailability in Sprague-Dawley rat at 2 mg/kg; format: ADME, organism-based; details: in vivo
[14] = system: Hepatitis B virus; assay: Antiviral activity against HBV infected in human HepG2.2.15 assessed as reduction on HBsAg level by ELISA; format: functional, organism-based
[15] = Toxicity in mouse infected with AAV encapsidated HBV assessed as change in body weight at 1 mg/kg, po QD for 4 weeks; format: organism-based; details: in vivo, 672 h
[16] = system: Hepatitis B virus; assay: Antiviral activity against HBV infected in human HepG2.2.15 cells assessed as reduction of 3.5 Kb HBV RNA level at 50 nM and incubated for 4 to 48 hrs by Northern blot anlaysis; format: functional, organism-based; details: time 4-48 hrs
[17] = system: Hepatitis B virus; assay: Antiviral activity against HBV infected in human primary hepatocytes assessed as reduction on HBsAg level by ELISA; format: functional, organism-based; details: Hepatocyte
[18] = system: Hepatitis B virus; assay: Antiviral activity against HBV infected in human primary hepatocytes assessed as reduction on HBeAg level by ELISA; format: functional, organism-based; details: Hepatocyte
[19] = system: Hepatitis B virus; assay: Antiviral activity against HBV infected in human primary hepatocytes assessed as HBV DNA reduction by qPCR method; format: functional, organism-based; details: Hepatocyte
[20] = system: Hepatitis B virus; assay: In vivo antiviral activity against AAV encapsidated HBV infected in mouse assessed as reduction in HBsAg level at 1 mg/kg, po QD for 4 weeks in presence of (R)-7-(tert-butyl)-2-methoxy-3-(3-methoxypropoxy)-11-oxo-6,7-dihydro-11H-benzo[f]pyrido[1,2-d][1,4]oxazepine-10-carboxylic acid by ELISA; format: functional, organism-based
[21] = system: Hepatitis B virus; assay: In vivo antiviral activity against AAV encapsidated HBV infected in mouse assessed as reduction in HBV DNA at 1 mg/kg, po QD for 4 weeks in presence of (R)-7-(tert-butyl)-2-methoxy-3-(3-methoxypropoxy)-11-oxo-6,7-dihydro-11H-benzo[f]pyrido[1,2-d][1,4]oxazepine-10-carboxylic acid by qPCR method; format: functional, organism-based
[22] = system: Hepatitis B virus; assay: In vivo antiviral activity against AAV encapsidated HBV infected in mouse assessed as reduction in HBeAg level at 1 mg/kg, po QD for 4 weeks in presence of (R)-7-(tert-butyl)-2-methoxy-3-(3-methoxypropoxy)-11-oxo-6,7-dihydro-11H-benzo[f]pyrido[1,2-d][1,4]oxazepine-10-carboxylic acid by ELISA; format: functional, organism-based
[23] = Toxicity in rat assessed as mild white myeloid lymphocytopenia of spleen at 1000 mg/kg, po QD for 14 days; format: organism-based; details: in vivo, 336 h, time 14 day
[24] = Toxicity in mouse infected with AAV encapsidated HBV assessed as change in body weight at 10 mg/kg, po QD for 4 weeks; format: organism-based; details: in vivo, 672 h
[25] = Toxicity in rat assessed as decrease in normal rectal temperature at 300 mg/kg, po; format: organism-based; details: in vivo
[26] = system: Hepatitis B virus; assay: In vivo antiviral activity against AAV encapsidated HBV infected in mouse assessed as reduction in HBeAg level at 10 mg/kg, po QD for 4 weeks by ELISA; format: functional, organism-based
[27] = Toxicity in rat assessed as mild central lobular hepatocyte degeneration of liver at 1000 mg/kg, po QD for 14 days; format: organism-based; details: hepatocytes, 336 h, time 14 day
[28] = Toxicity in rat assessed as decrease in normal rectal temperature at 1000 mg/kg, po; format: organism-based; details: in vivo
[29] = Toxicity in rat assessed as moderate acute mucosal inflammation of duodenum at 1000 mg/kg, po QD for 14 days; format: organism-based; details: in vivo, 336 h, time 14 day
[30] = Toxicity in rat assessed as organ abnormality at 100 to 300 mg/kg, po QD for 14 days; format: organism-based; details: in vivo, 336 h, dose 100-300 mg/kg, time 14 day
[31] = Toxicity in rat assessed as mydriasis at 300 to 1000 mg/kg, po; format: organism-based; details: in vivo, dose 300-1000 mg/kg
[32] = Toxicity in rat assessed as mild myocardial degeneration of heart at 1000 mg/kg, po QD for 14 days; format: organism-based; details: in vivo, 336 h, time 14 day
[33] = system: Hepatitis B virus; assay: In vivo antiviral activity against AAV encapsidated HBV infected in mouse assessed as reduction in HBsAg level at 10 mg/kg, po QD for 4 weeks by ELISA; format: functional, organism-based

Structure (SMILES): COCCCOc1cc2c(cc1C(C)=O)-c1cc(=O)c(C(=O)O)cn1[C@H](C(C)(C)C)CO2
clearance [1]: 33 mL/min/kg | clearance [2]: 81 mL/min/kg | AUC(0-t) [3]: 0.478 µM·h | half-life [4]: 0.6 h | AUC(0-t) [5]: 0.228 µM·h | Cmax [6]: 104 nM | EC50 [7]: 0.5 nM | half-life [8]: 0.8 h | Vd [9]: 1 L/kg | Cmax [10]: 604 nM | Vd [11]: 2.5 L/kg | bioavailability [12]: 55.3% | bioavailability [13]: 10.4% | EC50 [14]: 1.3 nM

Structure (SMILES): C=C1[C@H](CO)[C@@H](O)C[C@@H]1n1cnc2c(=O)[nH]c(N)nc21.O [ENTECAVIR]
Activity [15]: Non-Toxic | Activity [16]: inactive | EC50 [17]: > 0.05 nM | EC50 [18]: > 0.05 nM | EC50 [19]: 0.0078 nM

Structure (SMILES): CC(C)OC(=O)OCOP(=O)(CO[C@H](C)Cn1cnc2c(N)ncnc21)OCOC(=O)OC(C)C
Activity [20]: inactive | Activity [21]: Active | Activity [22]: inactive

Structure (SMILES): COCCCOc1cc2c(cc1Cl)-c1cc(=O)c(C(=O)O)cn1[C@H](C1CC1)CO2
EC50 [7]: 105 nM | EC50 [14]: 66.2 nM

Structure (SMILES): COCCCOc1cc2c(cc1Cl)-c1cc(=O)c(C(=O)O)cn1[C@H](C1CCC1)CO2
EC50 [7]: 531 nM | EC50 [14]: 125 nM

Structure (SMILES): COCCCOc1cc2c(cc1OC)-c1cc(=O)c(C(=O)O)cn1[C@H](C(C)C)C2
Activity [23]: Toxic | Activity [24]: Non-Toxic | EC50 [7]: 0.8 nM | Activity [25]: Toxic | Activity [26]: Active | Activity [27]: Toxic | Activity [28]: Toxic | Activity [29]: Toxic | Activity [30]: Non-Toxic | Activity [31]: Toxic | Activity [32]: Toxic | Activity [33]: Active | EC50 [14]: 0.8 nM

Structure (SMILES): COCCCOc1cc2c(cc1Cl)-c1cc(=O)c(C(=O)O)cn1[C@H](C(C)C)C2
EC50 [7]: 0.8 nM | EC50 [14]: 0.9 nM

Structure (SMILES): COCCCOc1cc2c(cc1Cl)-c1cc(=O)c(C(=O)O)cn1[C@H](c1ccccc1)CO2
EC50 [7]: > 1000 nM | EC50 [14]: > 1000 nM

Structure (SMILES): COCCCOc1ccc(-c2cc(=O)c(C(=O)O)cn2-c2ccccc2C)cc1Cl
EC50 [7]: 140 nM | EC50 [14]: 230 nM

Results, then the compound that gave them:

EC50 [7]: 102 nM | EC50 [14]: 128 nM
Structure (SMILES): COCCCOc1cc2c(cc1Cl)-c1cc(=O)c(C(=O)O)cn1[C@H](CC(C)C)CO2

EC50 [7]: 193 nM | EC50 [14]: 226 nM
Structure (SMILES): COCCCOc1cc2c(cc1Cl)-c1cc(=O)c(C(=O)O)cn1[C@H](C)CO2

clearance [2]: 32 mL/min/kg | AUC(0-t) [3]: 1.34 µM·h | half-life [4]: 1.6 h | EC50 [7]: 8.8 nM | Cmax [10]: 1310 nM | Vd [11]: 1.7 L/kg | bioavailability [12]: 56.3% | EC50 [14]: 6.6 nM
Structure (SMILES): COCCCOc1cc2c(cc1Cl)-c1cc(=O)c(C(=O)O)cn1[C@H](C(C)C)CO2

clearance [2]: 58.5 mL/min/kg | AUC(0-t) [3]: 0.193 µM·h | half-life [4]: 6.3 h | EC50 [7]: 0.5 nM | Cmax [10]: 203 nM | Vd [11]: 4.9 L/kg | bioavailability [12]: 18.3% | EC50 [14]: 0.7 nM
Structure (SMILES): COCCCOc1cc2c(cc1Cl)-c1cc(=O)c(C(=O)O)cn1[C@H](C(C)(C)C)CO2

EC50 [7]: 44.7 nM | EC50 [14]: 47.2 nM
Structure (SMILES): CC[C@@H]1COc2cc(OCCCOC)c(Cl)cc2-c2cc(=O)c(C(=O)O)cn21
